Reference: ChEMBL document CHEMBL4400567, “Discovery of novel selective Janus kinase 2 (JAK2) inhibitors bearing a 1H-pyrazolo[3,4-d]pyrimidin-4-amino scaffold” (Bioorg Med Chem, 2019)

Assays:
cells = type: ADME, cell-based; conditions: Homo sapiens, NK92, 48 h
Description: Cytotoxicity against human NK92 cells harboring JAK1/3 measured after 48 hrs by CellTiter-Glo assay

HEL = assay: cells; type: functional, cell-based; conditions: Homo sapiens, 48 h
Description: Antiproliferative activity against human HEL cells harboring JAK2 V617F mutant measured after 48 hrs by CellTiter-Glo assay

TF-1 = assay: cells; type: functional, cell-based; conditions: Homo sapiens, TF-1, 48 h
Description: Antiproliferative activity against JAK2 wild-type human TF1 cells measured after 48 hrs by CellTiter-Glo assay

THP-1 = assay: cells; type: ADME, cell-based; conditions: Homo sapiens
Description: Cytotoxicity against IL-4 induced JAK1/3 activated human THP1 cells preincubated for 1 hr followed by IL-4 induction and measured after 1 hr by CellTiter-Glo assay

[1] = molecular target: Tyrosine-protein kinase JAK1 (Homo sapiens, UniProt P23458); type: ADME
Tyrosine-protein kinase JAK1, sequence (P23458 whole entry): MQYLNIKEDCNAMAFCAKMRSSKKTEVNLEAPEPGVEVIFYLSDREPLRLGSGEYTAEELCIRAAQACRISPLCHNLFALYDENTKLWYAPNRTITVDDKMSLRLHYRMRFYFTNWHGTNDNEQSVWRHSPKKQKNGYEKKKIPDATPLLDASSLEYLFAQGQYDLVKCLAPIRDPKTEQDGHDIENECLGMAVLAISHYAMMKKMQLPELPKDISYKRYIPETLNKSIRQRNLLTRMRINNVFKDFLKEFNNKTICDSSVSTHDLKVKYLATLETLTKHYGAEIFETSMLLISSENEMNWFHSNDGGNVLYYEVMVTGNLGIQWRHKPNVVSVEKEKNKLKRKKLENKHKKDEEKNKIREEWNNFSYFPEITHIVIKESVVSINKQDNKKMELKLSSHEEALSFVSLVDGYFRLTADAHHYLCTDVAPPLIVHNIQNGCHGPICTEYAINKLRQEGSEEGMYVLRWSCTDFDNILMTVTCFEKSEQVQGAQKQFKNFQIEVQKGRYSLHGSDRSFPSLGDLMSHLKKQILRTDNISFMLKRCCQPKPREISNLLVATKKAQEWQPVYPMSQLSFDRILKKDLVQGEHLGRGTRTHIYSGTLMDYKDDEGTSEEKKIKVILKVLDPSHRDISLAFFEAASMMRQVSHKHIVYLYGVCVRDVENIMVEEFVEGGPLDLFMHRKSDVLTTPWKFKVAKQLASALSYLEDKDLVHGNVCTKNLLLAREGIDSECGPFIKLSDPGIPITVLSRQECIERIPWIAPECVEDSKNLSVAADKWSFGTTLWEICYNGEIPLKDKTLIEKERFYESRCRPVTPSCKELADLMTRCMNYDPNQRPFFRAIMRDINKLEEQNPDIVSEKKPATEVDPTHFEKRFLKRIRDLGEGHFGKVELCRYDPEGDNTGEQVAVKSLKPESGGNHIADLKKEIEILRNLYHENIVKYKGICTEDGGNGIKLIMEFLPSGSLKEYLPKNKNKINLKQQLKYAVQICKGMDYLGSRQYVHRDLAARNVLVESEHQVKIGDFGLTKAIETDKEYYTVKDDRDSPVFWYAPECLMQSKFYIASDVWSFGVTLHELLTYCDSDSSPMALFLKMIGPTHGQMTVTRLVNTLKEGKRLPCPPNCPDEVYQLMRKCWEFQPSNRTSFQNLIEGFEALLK

IC50 (cells) | IC50 (HEL) | IC50 (TF-1) | IC50 (THP-1) | IC50 [1] | SMILES
23.6 µM | 8.2 µM | 7.1 µM | 28.8 µM | 0.215 µM | C=CC(=O)N1CCCC(n2nc(-c3cc(C=O)n(C)n3)c3c(N)ncnc32)C1 (stereo not given)
22.1 µM | 4.7 µM | 2 µM | 18.5 µM | 0.104 µM | C=CC(=O)N1CCC(n2nc(-c3cc(C(C)(C)O)n(C)n3)c3c(N)ncnc32)C1 (stereo not given)
